We go through four compounds from patent US7968561B2, “Steroidal compounds as steroid sulphatase inhibitors” (Sterix Limited, priority 2006, dated 2011).

The target in series [1] is T1, STS (Mus musculus, UniProt P50427).
T1 construct: from tissue; host or cells: liver of MF-1 nude mice, homogenate
T1 sequence (P50427 23-624): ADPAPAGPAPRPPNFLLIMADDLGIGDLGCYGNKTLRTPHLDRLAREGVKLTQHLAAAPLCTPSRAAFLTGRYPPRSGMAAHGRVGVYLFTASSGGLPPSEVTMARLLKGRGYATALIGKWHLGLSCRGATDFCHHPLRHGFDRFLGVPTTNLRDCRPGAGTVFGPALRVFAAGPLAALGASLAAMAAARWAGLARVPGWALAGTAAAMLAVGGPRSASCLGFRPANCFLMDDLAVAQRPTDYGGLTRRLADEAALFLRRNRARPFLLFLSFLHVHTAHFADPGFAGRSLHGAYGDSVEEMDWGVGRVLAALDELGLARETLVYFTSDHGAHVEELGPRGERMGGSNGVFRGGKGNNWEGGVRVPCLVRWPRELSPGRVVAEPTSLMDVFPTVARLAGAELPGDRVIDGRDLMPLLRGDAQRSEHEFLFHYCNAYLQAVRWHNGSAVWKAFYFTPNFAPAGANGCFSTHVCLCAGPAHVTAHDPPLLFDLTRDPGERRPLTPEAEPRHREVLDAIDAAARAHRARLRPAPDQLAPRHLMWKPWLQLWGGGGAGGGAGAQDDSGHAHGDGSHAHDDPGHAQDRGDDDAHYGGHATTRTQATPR
The series can be described thus: Liver STS activity in MCF-7STS xenograft mice. In kind it is in vivo. Particulars: Study 2: 1 mg/kg p.o. once per week. How it is done: (§1) Ovariectomised, athymic female MF-1 nude mice (nu/nu) (age 6-8 weeks) were obtained from Harlan Olac. Twenty four hours before the inoculation of MCF-7STS cells animals were injected s.c. with estradiol sulphate (E2S). On the day of inoculation 5×10^6 MCF-7STS cells (50 μl in Matrigel) were injected s.c. into the right flank of the mice. After cell inoculation mice were injected with E2S (100 μg/50 μl) and received another injection of these steroids 24 h later. Mice then received E2S 3 times per week until the end of the study. When tumours had reached approximately 80 mm^3 dosing was initiated with compounds being administered orally (100 μl; vehicle 10% THF: 90% propylene glycol) at 1 mg/kg. Tumour measurements and the weight of animals were recorded weekly. Samples of tumour and liver tissues together with blood were collected at a number of time points after the cessation of dosing.
Samples of tumour or liver tissues were homogenised in phosphate buffered saline (pH 7.4 containing 250 mM sucrose). Duplicate aliquots were incubated for 4 h with [^3H-E1S] […] An aliquot of the toluene was removed and the ^3H and ^14C radioactivity measured by liquid scintillation spectrometry. The mass of oestrone sulphate hydrolysed was calculated form the ^3H counts detected, corrected for procedural losses.

Series [2] has as its system MCF-7STS cells (MCF-7 cells over expressing STS). The series can be described thus: Growth of E2S-stimulated MCF-7STS xenograft tumours in nude mice. In kind it is in vivo. Particulars: Study 2: 1 mg/kg p.o. once per week for 7 weeks.
Protocol: Ovariectomised, athymic female MF-1 nude mice (nu/nu) (age 6-8 weeks) were obtained from Harlan Olac. Twenty four hours before the inoculation of MCF-7STS cells animals were injected s.c. with estradiol sulphate (E2S). On the day of inoculation 5×10^6 MCF-7STS cells (50 μl in Matrigel) were injected s.c. into the right flank of the mice. After cell inoculation mice were injected with E2S (100 μg/50 μl) and received another injection of these steroids 24 h later. Mice then received E2S 3 times per week until the end of the study. […] Tumour measurements and the weight of animals were recorded weekly. Samples of tumour and liver tissues together with blood were collected at a number of time points after the cessation of dosing.
Tumours were measured weekly and their volumes calculated using the equation length×width^2/2.
Student's t test was used to assess the significance of the differences in tumour volumes for the different groups.
Series [3] concerns the target T2, dehydroepiandrosterone sulphatase (DHA-STS) (Rattus norvegicus, UniProt P15589).
T2 construct: host or cells: rat liver
T2 sequence (P15589 20-577): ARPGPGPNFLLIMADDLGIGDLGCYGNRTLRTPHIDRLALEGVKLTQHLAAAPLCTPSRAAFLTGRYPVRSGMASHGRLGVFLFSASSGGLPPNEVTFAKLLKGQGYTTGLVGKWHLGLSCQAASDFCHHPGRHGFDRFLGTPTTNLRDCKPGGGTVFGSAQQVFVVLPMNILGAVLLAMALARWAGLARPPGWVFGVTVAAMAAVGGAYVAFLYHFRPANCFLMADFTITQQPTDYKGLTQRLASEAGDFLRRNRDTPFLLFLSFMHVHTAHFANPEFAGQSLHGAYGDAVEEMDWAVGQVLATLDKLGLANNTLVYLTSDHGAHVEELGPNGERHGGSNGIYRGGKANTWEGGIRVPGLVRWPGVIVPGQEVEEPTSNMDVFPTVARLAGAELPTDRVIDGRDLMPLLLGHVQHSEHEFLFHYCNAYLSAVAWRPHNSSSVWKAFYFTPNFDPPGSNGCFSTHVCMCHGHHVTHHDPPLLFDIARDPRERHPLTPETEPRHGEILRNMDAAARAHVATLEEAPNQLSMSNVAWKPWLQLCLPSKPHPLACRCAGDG
Particulars: administered orally or subcutaneously; cited from earlier work.

Series [4] addresses T3, E1-STS (Homo sapiens, UniProt P08842).
T3 construct: endogenous in cells; host or cells: intact MCF-7 cells
T3 sequence (P08842 22-583): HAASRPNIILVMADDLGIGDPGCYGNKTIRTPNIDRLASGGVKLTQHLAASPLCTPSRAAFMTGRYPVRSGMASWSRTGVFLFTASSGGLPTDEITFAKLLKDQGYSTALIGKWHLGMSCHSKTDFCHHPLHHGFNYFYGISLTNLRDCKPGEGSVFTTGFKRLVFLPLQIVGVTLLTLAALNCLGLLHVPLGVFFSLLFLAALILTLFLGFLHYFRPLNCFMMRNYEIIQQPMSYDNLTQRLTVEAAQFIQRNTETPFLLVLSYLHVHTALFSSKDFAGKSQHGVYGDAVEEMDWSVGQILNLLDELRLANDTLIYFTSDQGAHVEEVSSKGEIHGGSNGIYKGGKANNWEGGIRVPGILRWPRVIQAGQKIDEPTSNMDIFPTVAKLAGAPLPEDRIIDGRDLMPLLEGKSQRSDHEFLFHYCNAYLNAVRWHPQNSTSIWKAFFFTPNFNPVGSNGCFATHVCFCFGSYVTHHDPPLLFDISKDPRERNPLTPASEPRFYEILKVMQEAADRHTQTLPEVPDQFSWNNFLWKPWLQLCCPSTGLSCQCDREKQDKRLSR
On the set-up: dose or concentration left out as unconfirmed. Particulars: intact MCF-7 cells; cited from earlier work.

The target in series [5] is T4, E1-STS (Rattus norvegicus, UniProt P15589).
T4 construct: host or cells: rat liver
T4 sequence (P15589 20-577): T2 sequence (P15589 20-577)
Particulars: administered orally or subcutaneously; cited from earlier work.

The conditions of series [6]: rats; cited from earlier work.
Series [7] deals with T5, STS (Rattus norvegicus, UniProt P15589).
T5 construct: from tissue; host or cells: rat liver
T5 sequence (P15589 20-577): T2 sequence (P15589 20-577)
Kind of series: STS activity in rat livers 15 days after a single p.o. dose. Particulars: rat liver. In kind it is in vivo.

The target of series [8] is T6, steroid sulphatase (STS) (Homo sapiens, UniProt P08842).
T6 construct: endogenous in cells; host or cells: JEG-3 cells
T6 sequence (P08842 22-583): T3 sequence (P08842 22-583)
The series can be described thus: IC50 for steroid sulphatase inhibition measured in JEG-3 cells. In kind it is cell-based.

The nature of series [9]: Plasma oestradiol concentrations by radioimmunoassay. In kind it is in vivo, mice. Particulars: Study 2: once weekly dosing, extended period after cessation of dosing. How it is done:
as §1
Plasma oestradiol concentrations were measured by a specific radioimmunoassay procedure.

Structures are written as SMILES.

For the compound `NS(=O)(=O)Oc1ccc2c3c(c(=O)oc2c1)CCCCC3` [STX64], the “reduction of liver STS activity” value in series [1] is recorded as 25-50%. The tumour growth entry in [2] is reported as “ineffective”.

With `C[C@]12CC[C@@H]3c4ccc(OS(N)(=O)=O)cc4CC[C@H]3[C@@H]1CCC2=O` [EMATE, estrone-3-O-sulfamate], in [3], the “inhibition of rat liver DHA-STS activity” value is given as 99%. For the same compound, the “inhibition of E1-STS activity” value in [4] was “more than 99%”. Moreover, the “inhibition of rat liver E1-STS activity” value in [5] is listed as 99%. For the same compound, the “oral uterotrophic activity relative to oestradiol” value in [6] was 100 times.

The term IC50 denotes the midpoint of a concentration-inhibition curve. Regarding `CCCN1C(=O)CC2C3CCc4cc(OS(N)(=O)=O)ccc4C3CC[C@]2(C)C1=O` (some centres unmarked) [STX213], in series [7], the STS activity recovered came out at 69% and the “inhibition of STS activity” value worked out at 31%. In [8], the IC50 was 0.18 nM.

As for `C[C@]12CCC3c4ccc(OS(N)(=O)=O)cc4CCC3C1CC(=O)N(CCC(F)(F)F)C2=O` (some centres unmarked) [STX1938, 3-Sulfomoyloxy-N-(3,3,3-trifluoropropyl)-16,17-seco-Estra-1,3,5(10)-triene-16,17-imide], in series [9], the plasma oestradiol levels result is listed as “significantly reduced”. In series [1], the “inhibition of liver STS” value was “almost complete inhibition”.
